Measured values: US8481528B2 (Hoffmann-La Roche Inc., priority 2010, dated 2013)
Where a name gives a salt, the structure may show the parent alone.

Target: T1, human V1a receptor (Homo sapiens, UniProt P37288)
T1 construct: expressed in transfected cells; host or cells: HEK293 cells, transiently transfected; cell membranes
Assay: human V1a receptor binding (3H-Vasopressin SPA, HEK293 membranes)
Conditions: not given
Procedure: The human V1a receptor was cloned by RT-PCR from total human liver RNA. The coding sequence was subcloned in an expression vector after sequencing to confirm the identity of the amplified sequence. […] Cell membranes were prepared from HEK293 cells transiently transfected with the expression vector and grown in 20 liter fermenters with the following protocol.
50 g of cells are resuspended in 30 ml freshly prepared ice cold Lysis buffer (50 mM HEPES, 1 mM EDTA, 10 mM magnesium dichloride adjusted to pH=7.4+complete cocktail of protease inhibitor (Roche Diagnostics)). Homogenized with Polytron for 1 min and sonicated on ice for 2×2 minutes at 80% intensity (Vibracell sonicator). The preparation is centrifuged 20 min at 500 g at 4° C., the pellet is discarded and the supernatant centrifuged 1 hour at 43′000 g at 4° C. (19'000 rpm). The pellet is resuspended in 12.5 ml Lysis buffer+12.5 ml sucrose 20% and homogenized using a Polytron for 1-2 min. The protein concentration is determined by the Bradford method and aliquots are stored at −80° C. until use. For binding studies 60 mg Yttrium silicate SPA beads (Amersham®) are mixed with an aliquot of membrane in binding buffer (50 mM Tris, 120 mM sodium chloride, 5 mM potassium chloride, 2 mM calcium dichloride, 10 mM magnesium dichloride) for 15 minutes with mixing. 50 μl of bead/membrane mixture is then added to each well of a 96 well plate, followed by 50 μl of 4 nM 3H-Vasopressin (American Radiolabeled Chemicals). For total binding measurement 100 μl of binding buffer are added to the respective wells, for non-specific binding 100 μl of 8.4 mM cold vasopressin and for compound testing 100 μl of a serial dilution of each compound in 2% dimethyl sulfoxide. The plate is incubated 1 h at room temperature, centrifuged 1 min at 1000 g and counted on a Packard Top-Count. Non-specific binding counts are subtracted from each well and data is normalized to the maximum specific binding set at 100%. To calculate an IC50 the curve is fitted using a non-linear regression model (XLfit) and the Ki is calculated using the Cheng-Prussoff equation.

T1 sequence (P37288 whole entry): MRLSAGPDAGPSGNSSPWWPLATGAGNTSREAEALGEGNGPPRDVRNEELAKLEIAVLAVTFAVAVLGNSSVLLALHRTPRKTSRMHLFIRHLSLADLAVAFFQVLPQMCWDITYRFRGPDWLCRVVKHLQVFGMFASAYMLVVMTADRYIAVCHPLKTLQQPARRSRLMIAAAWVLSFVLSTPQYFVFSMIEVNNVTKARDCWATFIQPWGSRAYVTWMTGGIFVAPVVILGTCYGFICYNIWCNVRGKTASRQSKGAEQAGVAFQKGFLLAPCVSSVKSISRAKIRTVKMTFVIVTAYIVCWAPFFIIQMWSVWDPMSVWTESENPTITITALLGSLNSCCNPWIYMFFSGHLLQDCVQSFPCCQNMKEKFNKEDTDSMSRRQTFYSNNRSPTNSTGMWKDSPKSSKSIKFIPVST

Row | Compound | Ki [nM]
1 | CN1Cc2cc(Cl)ccc2-n2c(nnc2[C@H]2CC[C@@H](c3noc4ccccc43)CC2)C1 [Example 4, cis-1-(4-Benzo[d]isoxazol-3-yl-cyclohexyl)-8-chloro-5-methyl-5,6-dihydro-4H-2,3,5,10b-tetraaza-benzo[e]azulene] | 7.59
2 | CN1Cc2cc(Cl)ccc2-n2c(nnc2[C@H]2CC[C@H](c3noc4ccccc43)CC2)C1 [Example 6, trans-1-(4-Benzo[d]isoxazol-3-yl-cyclohexyl)-8-chloro-5-methyl-5,6-dihydro-4H-2,3,5,10b-tetraaza-benzo[e]azulene] | 0.794
3 | CC(C)(C)OC(=O)N1Cc2cc(Cl)ccc2-n2c(nnc2[C@H]2CC[C@H](c3noc4ncccc43)CC2)C1 [Example 16, trans-8-Chloro-1-(4-isoxazolo[5,4-b]pyridin-3-yl-cyclohexyl)-4H,6H-2,3,5,10b-tetraaza-benzo[e]azulene-5-carboxylic acid tert-butyl ester] | 3.63
4 | Clc1ccc2c(c1)CNCc1nnc([C@H]3CC[C@H](c4nsc5ccccc54)CC3)n1-2 [Example 20, trans-1-(4-Benzo[d]isothiazol-3-yl-cyclohexyl)-8-chloro-5,6-dihydro-4H-2,3,5,10b-tetraaza-benzo[e]azulene hydrochloride] | 1.51
5 | Clc1ccc2c(c1)CN(C1CCC1)Cc1nnc([C@H]3CC[C@H](c4nsc5ccccc54)CC3)n1-2 [Example 22, trans-1-(4-Benzo[d]isothiazol-3-yl-cyclohexyl)-8-chloro-5-cyclobutyl-5,6-dihydro-4H-2,3,5,10b-tetraaza-benzo[e]azulene] | 0.302
6 | CC(=O)N1Cc2cc(Cl)ccc2-n2c(nnc2[C@H]2CC[C@H](c3nsc4ccccc43)CC2)C1 [Example 24, trans-1-[1-(4-Benzo[d]isothiazol-3-yl-cyclohexyl)-8-chloro-4H,6H-2,3,5,10b-tetraaza-benzo[e]azulen-5-yl]-ethanone] | 0.398

Same assay, conditions: 3H-Vasopressin displacement, membranes of HEK293 cells transiently transfected with human V1a receptor; Ki by Cheng-Prusoff; read-out: pKi (hV1a) (converted)

Row | Compound | Ki [nM]
7 | CC(C)(C)OC(=O)N1Cc2cc(Cl)ccc2-n2c(nnc2[C@H]2CC[C@@H](c3noc4ccccc43)CC2)C1 [Example 1, cis-1-(4-Benzo[d]isoxazol-3-yl-cyclohexyl)-8-chloro-4H,6H-2,3,5,10b-tetraaza-benzo[e]azulene-5-carboxylic acid tert-butyl ester] | 8.91
8 | CC(C)(C)OC(=O)N1Cc2cc(Cl)ccc2-n2c(nnc2[C@H]2CC[C@H](c3noc4ccccc43)CC2)C1 [Example 2, trans-1-(4-Benzo[d]isoxazol-3-yl-cyclohexyl)-8-chloro-4H,6H-2,3,5,10b-tetraaza-benzo[e]azulene-5-carboxylic acid tert-butyl ester] | 4.79
9 | Clc1ccc2c(c1)CNCc1nnc([C@H]3CC[C@@H](c4noc5ccccc54)CC3)n1-2 [Example 3, cis-1-(4-Benzo[d]isoxazol-3-yl-cyclohexyl)-8-chloro-5,6-dihydro-4H-2,3,5,10b-tetraaza-benzo[e]azulene hydrochloride] | 11.2
10 | Clc1ccc2c(c1)CNCc1nnc([C@H]3CC[C@H](c4noc5ccccc54)CC3)n1-2 [Example 5, trans-1-(4-Benzo[d]isoxazol-3-yl-cyclohexyl)-8-chloro-5,6-dihydro-4H-2,3,5,10b-tetraaza-benzo[e]azulene hydrochloride] | 0.891
11 | CC(C)(C)OC(=O)N1Cc2cc(Cl)ccc2-n2c(nnc2[C@H]2CC[C@H](c3noc4cc(F)ccc43)CC2)C1 [Example 7, trans-8-Chloro-[4-(6-fluoro-benzo[d]isoxazol-3-yl)-cyclohexyl]-4H,6H-2,3,5,10b-tetraaza-benzo[e]azulene-5-carboxylic acid tert-butyl ester] | 4.79
12 | Fc1ccc2c(c1)onc2[C@H]1CC[C@H](c2nnc3n2-c2ccc(Cl)cc2CNC3)CC1 [Example 8, trans-8-Chloro-1-[4-(6-fluoro-benzo[d]isoxazol-3-yl)-cyclohexyl]-5,6-dihydro-4H-2,3,5,10b-tetraaza-benzo[e]azulene hydrochloride] | 1.51
13 | CN1Cc2cc(Cl)ccc2-n2c(nnc2[C@H]2CC[C@H](c3noc4cc(F)ccc43)CC2)C1 [Example 9, trans-8-Chloro-1-[4-(6-fluoro-benzo[d]isoxazol-3-yl)-cyclohexyl]-5-methyl-5,6-dihydro-4H-2,3,5,10b-tetraaza-benzo[e]azulene] | 1.2
14 | CC(C)(C)OC(=O)N1Cc2cc(Cl)ccc2-n2c(nnc2[C@H]2CC[C@H](c3noc4ccc(F)cc43)CC2)C1 [Example 10, trans-8-Chloro-1-[4-(5-fluoro-benzo[d]isoxazol-3-yl)-cyclohexyl]-4H,6H-2,3,5,10b-tetraaza-benzo[e]azulene-5-carboxylic acid tert-butyl ester] | 3.24
15 | Fc1ccc2onc([C@H]3CC[C@H](c4nnc5n4-c4ccc(Cl)cc4CNC5)CC3)c2c1 [Example 11, trans-8-Chloro-1-[4-(5-fluoro-benzo[d]isoxazol-3-yl)-cyclohexyl]-5,6-dihydro-4H-2,3,5,10b-tetraaza-benzo[e]azulene hydrochloride] | 2.09
16 | CN1Cc2cc(Cl)ccc2-n2c(nnc2[C@H]2CC[C@H](c3noc4ccc(F)cc43)CC2)C1 [Example 12, trans-8-Chloro-1-[4-(5-fluoro-benzo[d]isoxazol-3-yl)-cyclohexyl]-5-methyl-5,6-dihydro-4H-2,3,5,10b-tetraaza-benzo[e]azulene] | 0.794
17 | CC(C)(C)OC(=O)N1Cc2cc(Cl)ccc2-n2c(nnc2[C@H]2CC[C@H](c3noc4cccnc43)CC2)C1 [Example 13, trans-8-Chloro-1-(4-isoxazolo[4,5-b]pyridin-3-yl-cyclohexyl)-4H,6H-2,3,5,10b-tetraaza-benzo[e]azulene-5-carboxylic acid tert-butyl ester] | 2.69
18 | Clc1ccc2c(c1)CNCc1nnc([C@H]3CC[C@H](c4noc5cccnc54)CC3)n1-2 [Example 14, trans-8-Chloro-1-(4-isoxazolo[4,5-b]pyridin-3-yl-cyclohexyl)-5,6-dihydro-4H-2,3,5,10b-tetraaza-benzo[e]azulene hydrochloride] | 2.19
19 | CN1Cc2cc(Cl)ccc2-n2c(nnc2[C@H]2CC[C@H](c3noc4cccnc43)CC2)C1 [Example 15, trans-8-Chloro-1-(4-isoxazolo[4,5-b]pyridin-3-yl-cyclohexyl)-5-methyl-5,6-dihydro-4H-2,3,5,10b-tetraaza-benzo[e]azulene] | 0.708
20 | Clc1ccc2c(c1)CNCc1nnc([C@H]3CC[C@H](c4noc5ncccc54)CC3)n1-2 [Example 17, trans-8-Chloro-1-(4-isoxazolo[5,4-b]pyridin-3-yl-cyclohexyl)-5,6-dihydro-4H-2,3,5,10b-tetraaza-benzo[e]azulene hydrochloride] | 5.25
21 | CN1Cc2cc(Cl)ccc2-n2c(nnc2[C@H]2CC[C@H](c3noc4ncccc43)CC2)C1 [Example 18, trans-8-Chloro-1-(4-isoxazolo[5,4-b]pyridin-3-yl-cyclohexyl)-5-methyl-5,6-dihydro-4H-2,3,5,10b-tetraaza-benzo[e]azulene] | 0.891
22 | CC(C)(C)OC(=O)N1Cc2cc(Cl)ccc2-n2c(nnc2[C@H]2CC[C@H](c3nsc4ccccc43)CC2)C1 [Example 19, trans-1-(4-Benzo[d]isothiazol-3-yl-cyclohexyl)-8-chloro-4H,6H-2,3,5,10b-tetraaza-benzo[e]azulene-5-carboxylic acid tert-butyl ester] | 7.59
23 | CN1Cc2cc(Cl)ccc2-n2c(nnc2[C@H]2CC[C@H](c3nsc4ccccc43)CC2)C1 [Example 21, trans-1-(4-Benzo[d]isothiazol-3-yl-cyclohexyl)-8-chloro-5-methyl-5,6-dihydro-4H-2,3,5,10b-tetraaza-benzo[e]azulene] | 1.58
24 | CNCCN1Cc2cc(Cl)ccc2-n2c(nnc2[C@H]2CC[C@H](c3nsc4ccccc43)CC2)C1 [Example 23, trans-{2-[1-(4-Benzo[d]isothiazol-3-yl-cyclohexyl)-8-chloro-4H,6H-2,3,5,10b-tetraaza-benzo[e]azulen-5-yl]-ethyl}-methyl-amine] | 0.603
25 | CN(C)CC(=O)N1Cc2cc(Cl)ccc2-n2c(nnc2[C@H]2CC[C@H](c3nsc4ccccc43)CC2)C1 [Example 25, trans-1-[1-(4-Benzo[d]isothiazol-3-yl-cyclohexyl)-8-chloro-4H,6H-2,3,5,10b-tetraaza-benzo[e]azulen-5-yl]-2-dimethylamino-ethanone] | 0.302
26 | CS(=O)(=O)N1Cc2cc(Cl)ccc2-n2c(nnc2[C@H]2CC[C@H](c3nsc4ccccc43)CC2)C1 [Example 26, trans-1-(4-Benzo[d]isothiazol-3-yl-cyclohexyl)-8-chloro-5-methanesulfonyl-5,6-dihydro-4H-2,3,5,10b-tetraaza-benzo[e]azulene] | 0.302
